Laboratory results as given in article PMC6792352, “Limited Chemical Structural Diversity Found to Modulate Thyroid Hormone Receptor in the Tox21 Chemical Library” (Environmental Health Perspectives, 2019).
Counter-ions that a name gives are not always drawn.

Experiment: in vitro
Conditions: rat, gh3-tre-luc cells

Row | SMILES | CC50 at 24 h (AC50 (uM) modified / 1000) [µM] | other results
1 | N#CC1(N=NC2(C#N)CCCCC2)CCCCC1 [1,1'-Diazene-1,2-diyldicyclohexanecarbonitrile] | > 90 | 
2 | O=C1CCCCCN1SSN1CCCCCC1=O [1,1'-Disulfanediyldiazepan-2-one] | 53.9 | 
3 | O=[N+]([O-])c1ccc(Oc2ccc([N+](=O)[O-])cc2)cc1 [1,1'-Oxybis(4-nitrobenzene)] | > 90 | 
4 | CC(O)COCC(C)O (stereo not shown) [1,1'-Oxybis-2-propanol] | > 90 | 
5 | NC(N)=NCCCCN=C(N)N [1,1'-Tetramethylenediguanidine sulfate] | > 50 | 
6 | Cc1cccc(OCCOc2cccc(C)c2)c1 [1,1'-[Ethane-1,2-diylbis(oxy)]bis(3-methylbenzene)] | > 100 | 
7 | c1ccc(-c2cccc(-c3ccccc3)c2)cc1 [1,1':3',1''-Terphenyl] | > 90 | 
8 | c1ccc(-c2ccc(-c3ccccc3)cc2)cc1 [1,1':4',1''-Terphenyl] | > 20 | 
9 | FC(F)(F)C(F)(F)C(F)(F)C(F)(F)CCI [1,1,1,2,2,3,3,4,4-Nonafluoro-6-iodohexane] | > 40 | 
10 | BrCC(Br)(Br)Br [1,1,1,2-Tetrabromoethane] | > 90 | 
11 | ClCC(Cl)(Cl)Cl [1,1,1,2-Tetrachloroethane] |  | CC50 at 24 h (AC50 (uM) modified / 1000, Tox21_110001=Tox21_201109, viability, 1 nM T3 present, 24 h): > 100 µM
12 | FC(F)(F)C(Cl)(Cl)Cl [1,1,1-Trichloro-2,2,2-trifluoroethane] | > 90 | 
13 | CC(C)(O)C(Cl)(Cl)Cl [1,1,1-Trichloro-2-methyl-2-propanol] | > 50 | 
14 | CC(Cl)(Cl)Cl [1,1,1-Trichloroethane] | > 90 | 
15 | CC(=O)C(Cl)(Cl)Cl [1,1,1-Trichloropropanone] | 13.3 | 
16 | COC(C)(OC)OC [1,1,1-Trimethoxyethane] | > 90 | 
17 | BrC(Br)C(Br)Br [1,1,2,2-Tetrabromoethane] | > 90 | 
18 | ClC(Cl)C(Cl)Cl [1,1,2,2-Tetrachloroethane] |  | CC50 at 24 h (AC50 (uM) modified / 1000, Tox21_110001=Tox21_200074, viability, 1 nM T3 present, 24 h): > 90 µM
19 | FC(F)(Cl)C(F)(Cl)Cl [1,1,2-Trichloro-1,2,2-trifluoroethane] | > 90 | 
20 | ClCC(Cl)Cl [1,1,2-Trichloroethane] |  | CC50 at 24 h (AC50 (uM) modified / 1000, Tox21_110001=Tox21_202465, viability, 1 nM T3 present, 24 h): > 90 µM

Row | SMILES | CC50 at 24 h (AC50 (uM) modified / 1000) [µM] | other results
21 | CC(Cl)C(Cl)Cl (stereo not shown) [1,1,2-Trichloropropane] | > 90 | 
22 | CC1=Nc2ccc3ccccc3c2C1(C)C [1,1,2-Trimethyl-1H-benzo[e]indole] | > 90 | 
23 | Cc1c([N+](=O)[O-])cc2c(c1[N+](=O)[O-])C(C)(C)CC2(C)C [1,1,3,3,5-Pentamethyl-4,6-dinitro-2,3-dihydro-1H-indene] |  | CC50 at 24 h (AC50 (uM) modified / 1000, Tox21_110001=Tox21_302237, viability, 1 nM T3 present, 24 h): 74.8 µM
24 | CCCCN(CCCC)C(=O)N(CCCC)CCCC [1,1,3,3-Tetrabutylurea] | > 90 | 
25 | O=C(CCl)C(Cl)Cl [1,1,3-Trichloropropanone] |  | CC50 at 24 h (AC50 (uM) modified / 1000, Tox21_110001=Tox21_202795, viability, 1 nM T3 present, 24 h): 13 µM
26 | CNC(=S)N(C)C [1,1,3-Trimethyl-2-thiourea] | > 90 | 
27 | CN(C)CCN(C)CCN(C)C [1,1,4,7,7-Pentamethyldiethylenetriamine] | > 90 | 
28 | C=CC(C)CCCC(C)(C)O (stereo not shown) [1,1,5-Trimethyl-6-heptenol] | > 90 | 
29 | CC(=O)c1ccc(C(C)=O)cc1 [1,1-(1,4-Phenylene)bis-ethanone] | > 90 | 
30 | Cc1ccc(C(C)c2ccc(C)c(C)c2)cc1C [1,1-Bis(3,4-dimethylphenyl)ethane] | > 90 | 
31 | CC(Cl)(Cl)[N+](=O)[O-] [1,1-Dichloro-1-nitroethane] |  | CC50 at 24 h (AC50 (uM) modified / 1000, Tox21_110001=Tox21_201178, viability, 1 nM T3 present, 24 h): > 90 µM
32 | CC(Cl)Cl [1,1-Dichloroethane] |  | CC50 at 24 h (AC50 (uM) modified / 1000, Tox21_110001=Tox21_200205, viability, 1 nM T3 present, 24 h): > 90 µM
33 | C=C(Cl)Cl [1,1-Dichloroethylene] |  | CC50 at 24 h (AC50 (uM) modified / 1000, Tox21_110001=Tox21_200357, viability, 1 nM T3 present, 24 h): > 100 µM
34 | CC(=O)C(Cl)Cl [1,1-Dichloropropanone] |  | CC50 at 24 h (AC50 (uM) modified / 1000, Tox21_110001=Tox21_201090, viability, 1 nM T3 present, 24 h): > 90 µM
35 | CC=C(Cl)Cl [1,1-Dichloropropene] | > 90 | 
36 | CCN(CC)/[N+]([O-])=N/O [1,1-Diethyl-2-hydroxy-2-nitrosohydrazine diethylamine] | > 50 | 
37 | COC(C=C(C)CCC=C(C)C)OC [1,1-Dimethoxy-3,7-dimethylocta-2,6-diene] | > 90 | 
38 | COC(C)OC [1,1-Dimethoxyethane] | > 90 | 
39 | CCCC(=O)OC(C)(C)Cc1ccccc1 [1,1-Dimethyl-2-phenylethyl butanoate] | > 90 | 
40 | CN(C)N [1,1-Dimethylhydrazine] |  | CC50 at 24 h (AC50 (uM) modified / 1000, Tox21_110001=Tox21_302358, viability, 1 nM T3 present, 24 h): > 90 µM
